Measurements taken from patent publication US20250179126A1, “A NOVEL PEPTIDE FROM A PHOTOSYNTHETIC BACERIUM DIRECTLY TARGETS MITOCHONDRIA TO TRIGGER APOPTOSIS IN ADVANCED PROSTATE CANCER CELLS” (priority 2022, published 2025).

Columns and labels:
[1] = system: LNCaP prostate cancer cells; test: MTT cell viability assay, LNCaP prostate cancer cells; type: cell-based, human; conditions: LNCaP (p53 wild-type, AR+), 24-72 hr; paclitaxel 1 nM
Protocol: (§1) Cell lines and culture: Human cancer and noncancer (immortalized and nonimmortalized) cell lines were obtained from the American Type Culture Collection [prostate cancer (PC3, DU145 and LNCaP), normal prostate (CRL11611), breast cancer (MCF-7), ovarian cancer (SK-OV3 adenocarcinoma), lung cancer (A549)]. MDD2 breast cancer cells (p53 dominant-negative) were provided courtesy of Dr Andrei V. Gudkov, Roswell Park Cancer Institute. 20 All cell lines were cultured in MEM-E (Invitrogen) supplemented with 10% heat-inactivated fetal bovine serum (Atlanta Biological, Inc.), 100 units/mL penicillin, and 100 μg/mL streptomycin at 37° C. in 5% CO2.

[2] = system: PC3 cells; test: JC-1 mitochondrial membrane potential assay; type: cell-based, human; conditions: PC3, 1, 10 and 100 μM
Protocol: Cells were stained by using JC-1 Mitochondrial Membrane Potential Assay Kits according to the manufacturer's instructions to measure mitochondrial membrane potential, and fluorescence was measured by flow cytometry. 9B, Caspase-3 is involved in aurB-induced apoptosis. […] The inhibitor was used at the indicated concentrations. Mean±SE (N=3).
JC-1 dye (Invitrogen) was used to determine mitochondrial membrane potential. […] After washing with PBS, trypsinized PC3 cells were incubated with JC-1 dye and analyzed by FACS.

[3] = Water solubility of peptides
[4] = system: PC3 cells; test: Cellular membrane toxicity, LDH leakage assay; type: cell-based, human; conditions: PC3, 0.2-200 μM, 37° C.
Protocol: FIG. 6A-6B: Cellular membrane toxicity assays. […] Cells treated with lysis buffer were defined as having 100% LDH release. Mean±SE (N=3).
Cellular membrane toxicity: LDH assays were performed as we previously described (Cha et al., Cancer Research 2020, 80: 1615-1623).

[5] = system: DU145 prostate cancer cells; test: MTT cell viability assay, DU145 prostate cancer cells; type: cell-based, human; conditions: DU145 (p53-mutant, AR−), 24-72 hr; paclitaxel 1 nM
Description: (§2) Cell viability was detected by MTT assays, and the control (PBS-treated) cells were considered 100% viable. Mean±SE (N=3). *P<0.05, **P<0.01, ***P<0.001.
as §1

[6] = target: T1, mitochondrial ATP synthase gamma subunit (ATP5C) (Homo sapiens, UniProt P36542); test: Pull-down assay with biotin-labeled peptides and protein identification; type: binding; conditions: mitochondrial fraction of PC3 cells, biotin-labeled peptide, 16 hr at 4° C.
T1 construct: endogenous in cells; host or cells: PC3 human prostate cancer cells, mitochondrial fraction (detergent extract)
T1 sequence (P36542 26-298): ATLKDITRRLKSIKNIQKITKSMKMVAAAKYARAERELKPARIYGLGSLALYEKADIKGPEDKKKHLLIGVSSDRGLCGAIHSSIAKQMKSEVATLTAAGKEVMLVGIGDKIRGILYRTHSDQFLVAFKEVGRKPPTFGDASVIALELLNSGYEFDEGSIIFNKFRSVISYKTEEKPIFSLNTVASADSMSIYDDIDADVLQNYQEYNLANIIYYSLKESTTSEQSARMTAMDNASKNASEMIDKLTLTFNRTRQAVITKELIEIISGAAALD
Description: 8A, TEM image of PC3 cells. Representative TEM micrograph of aurB-treated cells depicting the intraritochondrial localization of aurB-GNRs (arrowheads) and mitochondria](Mt) swelling. Scale bar: 600 nm. Mt: mitochondria. […] Coomassie-stained SDS-PAGE gels are shown (8B). The protein band at ˜35 kDa (arrowhead) was identified as ATP5C using mass spectrometry analysis. The identified fragments are indicated in green underlined sequence (SEQ ID NO: 4)(8C).
Pull-down assay and protein identification: PC3 cells were washed twice with PBS, and the mitochondrial fraction was prepared with a Qproteome mitochondria isolation kit (Qiagen). […] The peptides were then preincubated with streptavidin-agarose beads for 4 hr. After washing, the beads were boiled, and the released proteins were subjected to SDS-PAGE analysis. A protein band of ˜35 kDa was subjected to microcapillary LC/MS/MS for protein identification (Harvard Medical School, Taplin Mass Spectrometry Facility). For IB, proteins were transferred to nitrocellulose membranes. After blocking with 5% BSA in TBST, the membranes were incubated with anti-ATP5C antibody at 1:25,000 in 5% BSA/TBST (Abcam) for 16 hr at 4° C. The secondary antibody was applied (anti-goat IgG-HRP; Santa Cruz Biotechnology). The signal was detected using enhanced chemiluminescence (ECL).

[7] = system: Human cancer cells; test: MTT cell viability assay, human cancer cell panel; type: cell-based; conditions: 5-100 μM, 24 hr, 37° C.
Protocol: as §2
Cytotoxicity assay: The MTT assay was performed as we previously described (Cha et al., Cancer Research 2020, 80: 1615-1623).

[8] = system: PC3 prostate cancer cells; test: MTT cell viability assay, PC3 prostate cancer cells; type: cell-based, human; conditions: PC3 (p53-null, AR−), 24-72 hr; paclitaxel 1 nM
Protocol: as §1

[9] = system: DU145 cells; test: Annexin-V apoptosis assay by flow cytometry, DU145; type: cell-based, human; conditions: DU145, 48 hr; Ptxl 1 nM, p28 50 μM, aurA/aurB 0.5-50 μM
Protocol: (§3) FIG. 7A-7D: Determination of apoptotic cell death. Prostate cancer cell lines (7A: LNCaP, 7B: DU145 and 7C: PC3) and normal prostate CRL11611 cells (7D) were exposed to the indicated agents for 48 hr and stained using apoptosis assay kits according to the manufacturer's instructions. The samples were analyzed by flow cytometry. Mean±SE (N=3).
(§4) After 48 hr, annexin-V apoptosis assays (Thermo Fisher Scientific) were conducted to detect apoptotic cells. At least 10,000 cells in each case were analyzed by FACS (RRC, UIC).

[10] = system: LNCaP cells; test: Annexin-V apoptosis assay by flow cytometry, LNCaP; type: cell-based, human; conditions: 48 hr, Ptxl 1 nM, p28 50 μM, aurA/aurB 0.5-50 μM
Protocol: as §3, §4

[11] = system: PC3 cells; test: Annexin-V apoptosis assay by flow cytometry, PC3; type: cell-based, human; conditions: PC3, 48 hr; Ptxl 1 nM, p28 50 μM, aurA/aurB 0.5-50 μM
Protocol: as §3, §4

[12] = system: normal prostate CRL11611 cells; test: Annexin-V apoptosis assay by flow cytometry, normal prostate CRL11611; type: cell-based, human; conditions: normal CRL11611, 48 hr; Ptxl 1 nM, p28 50 μM, aurA/aurB 0.5-50 μM
Protocol: as §3, §4

## LVK GGE AEA ANI ANA GLS AGP AAN YLPA [aurA]
[1]
  cytotoxic effect (MTT cell viability): not active
[2]
  effect on mitochondrial membrane potential (JC-1): did not impact
[3]
  water solubility: highly water-soluble
[4]
  cellular membrane toxicity (LDH release): Neither aurA nor aurB induced cellular membrane toxicity at any concentrations
[5]
  cytotoxic effect (MTT cell viability): not active
[6]
  binding to ATP5C (pull-down of ~35 kDa protein, IB): did not
[7]
  anti-proliferative effect (MTT cell viability): little effect at any concentration tested
[8]
  cytotoxic effect (MTT cell viability): not active
[9]
  apoptotic cell death: very little effect
[10]
  apoptotic cell death: very little effect
[11]
  apoptotic cell death: very little effect
[12]
  apoptotic cell death: very little effect
